Data taken from US12427134B2, “Methods of reducing the risk of cardiovascular events in a subject with atrial fibrillation and/or atrial flutter” (priority 2019, dated 2025).
Read-outs that look alike come from different tables or passages of the source.

How the values were obtained:
[1] = tested on: hypertriglyceridemic patients with cardiovascular disease or at high risk for cardiovascular disease; assay: REDUCE-IT: post hoc control group response analyses (placebo patients with biomarker increase vs no change/decrease); type: in vivo, human
Description: The objective of the following example was to perform a control group analysis of the ischemic events in patients from the REDUCE-IT trial, as described in Example 1. The study focused on exploring if outcomes were affected by possible malabsorption. If mineral oil in the placebo might have negatively affected statin absorption in some patients, this could have contributed to differences in outcomes between the groups.

[2] = tested on: hypertriglyceridemic patients with cardiovascular disease or at high risk for cardiovascular disease; details: human, in vivo
Description: Specification of Variables and Procedures: Safety assessments included adverse events, clinical laboratory measurements (chemistry, hematology), 12-lead ECGs, vital signs (systolic and diastolic blood pressure, heart rate, respiratory rate, and body temperature), weight, waist circumference, and physical examinations as per Study Procedures in Table 1. […] All laboratory test results were evaluated by the investigator as to their clinical significance. Any observations at physical examinations or laboratory values considered by the investigator to be clinically significant were considered an adverse event.
An adverse event can therefore be any unfavorable and/or unintended sign (including an abnormal laboratory finding), symptom, or disease temporally associated with the use of an investigational medication product, whether or not related to the investigational medication product. All adverse events, including observed or volunteered problems, complaints, or symptoms, were recorded on the appropriate CRF. Each adverse event was evaluated for duration, intensity, and causal relationship with the study medication or other factors.
Adverse events, which included clinical laboratory test variables, were monitored from the time of informed consent until study participation was complete. Patients were instructed to report any adverse event that they experienced to the investigator. Beginning with Visit 2, investigators assessed for adverse events at each visit and recorded the event on the appropriate adverse event CRF.
Causality Assessment: The relationship of an adverse event to the administration of the study drug was assessed according to the following definitions: • No (unrelated, not related, no relation)—The time course between the administration of study drug and the occurrence or worsening of the adverse event rules out a causal relationship and another cause (concomitant drugs, therapies, complications, etc.) is suspected. • Yes (related, probably related, possibly related)—The time course between the administration of study drug and the occurrence or worsening of the adverse event is consistent with a causal relationship and no other cause (concomitant drugs, therapies, complications, etc.) can be identified.
Serious Adverse Events: A serious adverse event (SAE) is defined as an adverse event that meets any of the following criteria: • Results in death; • Is life-threatening—The term “life-threatening” in the definition of “serious” refers to an event in which the patient was at risk of death at the time of the event. […] Important medical events that may not result in death, be life threatening, or require hospitalization were considered an SAE when, based upon appropriate medical judgment, they may have jeopardized the patient and may have required medical or surgical intervention to prevent one of the outcomes listed above.
Analysis of Safety: All analyses of safety were conducted on the safety population, which was defined as all randomized patients. The safety assessment was based on the frequency of adverse events, physical exams, vital signs and safety laboratory tests. AEs with new onset during the study between the initiation of study drug and 30 days after the last dose of study drug for each patient was considered treatment-emergent (TEAEs). This included any AE with onset prior to initiation of study drug and increased severity after the treatment initiation.
This included overall incidence rates (regardless of severity and relationship to study drug), and incidence rates for moderate or severe adverse events. A summary of SAEs and adverse events leading to early discontinuation (for ≥30 days) were presented through data listings. Patients who restarted study drug were included in the summary of AEs leading to discontinuation.

CC/C=C\C/C=C\C/C=C\C/C=C\C/C=C\CCCC(=O)OCC [AMR101, eicosapentaenoic acid ethyl ester]
Key secondary endpoint, HR AMR101 group versus placebo patients with an increase in LDL-C ([1]; LDL-C at one year): 0.80 | Key secondary endpoint, HR AMR101 group versus placebo patients with no change or a decrease in LDL-C ([1]; LDL-C at one year): 0.74 | Primary endpoint, HR AMR101 group versus placebo patients with an increase in LDL-C ([1]; LDL-C at one year): 0.79 | Primary endpoint, HR AMR101 group versus placebo patients with no change or a decrease in LDL-C ([1]; LDL-C at one year): 0.79 | Key secondary endpoint, HR AMR101 group versus placebo patients with an increase in hsCRP ([1]; hsCRP at two years): 0.83 | Key secondary endpoint, HR AMR101 group versus placebo patients with no change or a decrease in hsCRP ([1]; hsCRP at two years): 0.85 | Primary endpoint, HR AMR101 group versus placebo patients with an increase in hsCRP ([1]; hsCRP at two years): 0.79 | Primary endpoint, HR AMR101 group versus placebo patients with no change or a decrease in hsCRP ([1]; hsCRP at two years): 0.83 | TEAE: Infections and infestations, % ([2]; female): (48.9) % | SAE class infections and infestations, patients [2]: 8.1% | Serious adverse event - Infections and infestations (SOC), % patients [2]: (8.1) % | Serious adverse event - Infections and infestations (SOC), n patients [2]: 332 | Serious adverse event - Sepsis, % patients [2]: (0.6) % | Serious adverse event - Sepsis, n patients [2]: 25 | Serious adverse event - Urinary tract infection, % patients [2]: (0.6) % | Serious adverse event - Urinary tract infection, n patients [2]: 25 | Severe TEAE class infections and infestations, patients [2]: 5.1% | Severe TEAE: Infections and infestations, % [2]: (5.1) % | Severe TEAE: Sepsis, % [2]: (0.5) % | Severe TEAE: Urinary tract infection, % [2]: (0.3) % | TEAE class infections and infestations, patients [2]: 44.6% | TEAE: Upper respiratory tract infection, % [2]: (7.6) % | TEAE: Urinary tract infection, % [2]: (6.2) % | TEAE: Infections and infestations, % ([2]; male): (42.8) %
